# Experimental data as given in PubChem BioAssay AID2060486 (Molecular Pharmacology Branch, DTP, NCI, 2025).
# Test system: IGROV1 complex spheroids (HUVEC, MSC), viability % test/control
# Assay: Anticancer human tumor IGROV1 cell line growth inhibition [GQUAD];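 also: spheroids exposed to compounds for 7 days before readout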;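 as to viability, T/C: 100% = DMSO vehicle control viability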
# Settings: for IC50: curve of first compound; for viability, T/C: stronger effect = lower value
# Summary of the method: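 Tumor cells were grown as complex spheroids with HUVEC endothelial cells and mesenchymal stem cells as stroma. G-quadruplex stabilizers were combined with targeted agents over half-log dilutions from near the clinical Cmax, or from 10 microM.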
# [1] = second compound 0.0316 µM, first compound 0.0316 µM
# [2] = second compound 0.0316 µM, first compound 0.1 µM
# [3] = second compound 0.0316 µM, first compound 0.316 µM
# [4] = second compound 0.0316 µM, first compound 1 µM
# [5] = second compound 0.0316 µM, first compound 3.16 µM
# [6] = second compound 0.0316 µM, first compound 10 µM
# [7] = second compound 0.1 µM, first compound 0.0316 µM
# [8] = second compound 0.1 µM, first compound 0.1 µM
# [9] = second compound 0.1 µM, first compound 0.316 µM
# [10] = second compound 0.1 µM, first compound 1 µM
# [11] = second compound 0.1 µM, first compound 3.16 µM
# [12] = second compound 0.1 µM, first compound 10 µM
# [13] = second compound 0.316 µM, first compound 0.0316 µM
# [14] = second compound 0.316 µM, first compound 0.1 µM
# [15] = second compound 0.316 µM, first compound 0.316 µM
# [16] = second compound 0.316 µM, first compound 1 µM
# [17] = second compound 0.316 µM, first compound 3.16 µM
# [18] = second compound 0.316 µM, first compound 10 µM
# [19] = second compound 1 µM, first compound 0.0316 µM
# [20] = second compound 1 µM, first compound 0.1 µM
# [21] = second compound 1 µM, first compound 0.316 µM
# [22] = second compound 1 µM, first compound 1 µM
# [23] = second compound 1 µM, first compound 3.16 µM
# [24] = second compound 1 µM, first compound 10 µM
# [25] = second compound 3.16 µM, first compound 0.0316 µM
# [26] = second compound 3.16 µM, first compound 0.1 µM
# [27] = second compound 3.16 µM, first compound 0.316 µM
# [28] = second compound 3.16 µM, first compound 1 µM
# [29] = second compound 3.16 µM, first compound 3.16 µM
# [30] = second compound 3.16 µM, first compound 10 µM
# [31] = second compound 10 µM, first compound 0.0316 µM
# [32] = second compound 10 µM, first compound 0.1 µM
# [33] = second compound 10 µM, first compound 0.316 µM
# [34] = second compound 10 µM, first compound 1 µM
# [35] = second compound 10 µM, first compound 3.16 µM
# [36] = second compound 10 µM, first compound 10 µM
smiles,measurement,setting,value
COc1ncnc(C2CC2)c1-c1ncc2cnn(Cc3ccc(-c4nc(C(F)(F)F)cn4C(C)C)cc3)c2n1 + Cc1cnc(CNC(=O)c2c(=O)c3ccc(N4CCCN(C)CC4)nc3n3c2sc2ccccc23)cn1,IC50,second compound 0.0316 µM,2110 nM
same,IC50,second compound 0.1 µM,< 31.6 nM
same,IC50,second compound 0.316 µM,< 31.6 nM
same,IC50,second compound 1 µM,< 31.6 nM
same,IC50,second compound 3.16 µM,< 31.6 nM
same,IC50,second compound 10 µM,< 31.6 nM
same,"viability, T/C",[1],53.6%
same,"viability, T/C",[2],55.4%
same,"viability, T/C",[3],53%
same,"viability, T/C",[4],57.7%
same,"viability, T/C",[5],42.7%
same,"viability, T/C",[6],46.5%
same,"viability, T/C",[7],37.1%
same,"viability, T/C",[8],39.4%
same,"viability, T/C",[9],33%
same,"viability, T/C",[10],28.5%
same,"viability, T/C",[11],35.5%
same,"viability, T/C",[12],34.1%
same,"viability, T/C",[13],20.6%
same,"viability, T/C",[14],25.6%
same,"viability, T/C",[15],26.9%
same,"viability, T/C",[16],21.4%
same,"viability, T/C",[17],21.7%
same,"viability, T/C",[18],20.8%
same,"viability, T/C",[19],15.2%
same,"viability, T/C",[20],13.8%
same,"viability, T/C",[21],11.1%
same,"viability, T/C",[22],14.3%
same,"viability, T/C",[23],15.8%
same,"viability, T/C",[24],12.4%
same,"viability, T/C",[25],10.6%
same,"viability, T/C",[26],8.57%
same,"viability, T/C",[27],9.08%
same,"viability, T/C",[28],9.63%
same,"viability, T/C",[29],9.64%
same,"viability, T/C",[30],8.03%
same,"viability, T/C",[31],9.86%
same,"viability, T/C",[32],9.33%
same,"viability, T/C",[33],8.36%
same,"viability, T/C",[34],8.88%
same,"viability, T/C",[35],10.2%
same,"viability, T/C",[36],7.78%
COc1ncnc(C2CC2)c1-c1ncc2cnn(Cc3ccc(-c4nc(C(F)(F)F)cn4C(C)C)cc3)c2n1 + Cc1[nH]c2ccc(F)cc2c1-c1nc2c3cccnc3c3ncccc3c2[nH]1,IC50,second compound 0.0316 µM,> 10000 nM
same,IC50,second compound 0.1 µM,> 10000 nM
same,IC50,second compound 0.316 µM,> 10000 nM
same,IC50,second compound 1 µM,< 31.6 nM
same,IC50,second compound 3.16 µM,< 31.6 nM
same,IC50,second compound 10 µM,< 31.6 nM
same,"viability, T/C",[1],95.7%
same,"viability, T/C",[2],79.5%
same,"viability, T/C",[3],89.6%
same,"viability, T/C",[4],89.9%
same,"viability, T/C",[5],90.3%
same,"viability, T/C",[6],93.2%
same,"viability, T/C",[7],100%
same,"viability, T/C",[8],74.6%
same,"viability, T/C",[9],79.7%
same,"viability, T/C",[10],80.7%
same,"viability, T/C",[11],100%
same,"viability, T/C",[12],71.2%
same,"viability, T/C",[13],63.7%
same,"viability, T/C",[14],51.8%
same,"viability, T/C",[15],72.1%
same,"viability, T/C",[16],62.4%
same,"viability, T/C",[17],72.8%
same,"viability, T/C",[18],46.1%
same,"viability, T/C",[19],3.69%
same,"viability, T/C",[20],3.51%
same,"viability, T/C",[21],4.12%
same,"viability, T/C",[22],3.46%
same,"viability, T/C",[23],4.03%
same,"viability, T/C",[24],3.74%
same,"viability, T/C",[25],2.91%
same,"viability, T/C",[26],3.63%
same,"viability, T/C",[27],3.35%
same,"viability, T/C",[28],3.99%
same,"viability, T/C",[29],3.54%
same,"viability, T/C",[30],2.75%
same,"viability, T/C",[31],3.12%
same,"viability, T/C",[32],4.19%
same,"viability, T/C",[33],4.15%
same,"viability, T/C",[34],3.3%
same,"viability, T/C",[35],3.45%
same,"viability, T/C",[36],2.6%
O=C(c1cc(Cc2n[nH]c(=O)c3ccccc23)ccc1F)N1CCN(C(=O)C2CC2)CC1 + Cc1[nH]c2ccc(F)cc2c1-c1nc2c3cccnc3c3ncccc3c2[nH]1,IC50,second compound 0.0316 µM,5340 nM
same,IC50,second compound 0.1 µM,3120 nM
same,IC50,second compound 0.316 µM,5530 nM
same,IC50,second compound 1 µM,< 31.6 nM
same,IC50,second compound 3.16 µM,< 31.6 nM
same,IC50,second compound 10 µM,< 31.6 nM
same,"viability, T/C",[1],97.1%
same,"viability, T/C",[2],82.3%
same,"viability, T/C",[3],94.9%
same,"viability, T/C",[4],66.5%
same,"viability, T/C",[5],72.8%
same,"viability, T/C",[6],31%
same,"viability, T/C",[7],89.1%
same,"viability, T/C",[8],83.2%
same,"viability, T/C",[9],69.4%
same,"viability, T/C",[10],57.3%
same,"viability, T/C",[11],62.3%
same,"viability, T/C",[12],23.5%
same,"viability, T/C",[13],72.9%
same,"viability, T/C",[14],82.4%
same,"viability, T/C",[15],74%
same,"viability, T/C",[16],82.3%
same,"viability, T/C",[17],69.8%
same,"viability, T/C",[18],28%
same,"viability, T/C",[19],4.09%
same,"viability, T/C",[20],3.9%
same,"viability, T/C",[21],4.15%
same,"viability, T/C",[22],4.33%
same,"viability, T/C",[23],6.04%
same,"viability, T/C",[24],4.53%
same,"viability, T/C",[25],3.99%
same,"viability, T/C",[26],3.97%
same,"viability, T/C",[27],3.46%
same,"viability, T/C",[28],3.87%
same,"viability, T/C",[29],4.83%
same,"viability, T/C",[30],3.88%
same,"viability, T/C",[31],4.17%
same,"viability, T/C",[32],3.02%
same,"viability, T/C",[33],3.67%
same,"viability, T/C",[34],4.06%
same,"viability, T/C",[35],5.08%
same,"viability, T/C",[36],4.55%
C=CCn1c(=O)c2cnc(Nc3ccc(N4CCN(C)CC4)cc3)nc2n1-c1cccc(C(C)(C)O)n1 + Cc1[nH]c2ccc(F)cc2c1-c1nc2c3cccnc3c3ncccc3c2[nH]1,IC50,second compound 0.0316 µM,141 nM
same,IC50,second compound 0.1 µM,155 nM
same,IC50,second compound 0.316 µM,< 31.6 nM
same,IC50,second compound 1 µM,< 31.6 nM
same,IC50,second compound 3.16 µM,< 31.6 nM
same,IC50,second compound 10 µM,< 31.6 nM
same,"viability, T/C",[1],98.8%
same,"viability, T/C",[2],66.5%
same,"viability, T/C",[3],10.9%
same,"viability, T/C",[4],3.13%
same,"viability, T/C",[5],2.59%
same,"viability, T/C",[6],2.44%
same,"viability, T/C",[7],98.9%
same,"viability, T/C",[8],72.9%
same,"viability, T/C",[9],12.7%
same,"viability, T/C",[10],2.29%
same,"viability, T/C",[11],3.17%
same,"viability, T/C",[12],2.44%
same,"viability, T/C",[13],40.6%
same,"viability, T/C",[14],19.9%
same,"viability, T/C",[15],2.19%
same,"viability, T/C",[16],1.65%
same,"viability, T/C",[17],2.64%
same,"viability, T/C",[18],1.76%
same,"viability, T/C",[19],3.28%
same,"viability, T/C",[20],3.17%
same,"viability, T/C",[21],2.16%
same,"viability, T/C",[22],2.04%
same,"viability, T/C",[23],2.4%
same,"viability, T/C",[24],1.76%
same,"viability, T/C",[25],3.09%
same,"viability, T/C",[26],2.89%
same,"viability, T/C",[27],2.25%
same,"viability, T/C",[28],1.95%
same,"viability, T/C",[29],2.45%
same,"viability, T/C",[30],1.48%
same,"viability, T/C",[31],3.85%
same,"viability, T/C",[32],2.84%
same,"viability, T/C",[33],2.5%
same,"viability, T/C",[34],2.14%
same,"viability, T/C",[35],2.23%
same,"viability, T/C",[36],1.57%
